# Results from article PMC7026498, “GABAA Receptor β2E155 Residue Located at the Agonist-Binding Site Is Involved in the Receptor Gating” (Frontiers in Cellular Neuroscience, 2020).
# Experiments:
# [1] = biological target: T1, GABAA receptor α1β2E155Cγ2L (β2 subunit) (Rattus norvegicus, UniProt P62813+P63138, P63138:E179C); assay: whole-cell patch-clamp dose-response (extrapolated Hill fit) and single-channel recording; assay type: cell-based
# T1 construct: gene Gabrb2; recombinant α1β2E155Cγ2L receptor in HEK293 cells; with GABAA receptor α1 and γ2L subunits
# T1 sequence (P63138 26-474 E179C): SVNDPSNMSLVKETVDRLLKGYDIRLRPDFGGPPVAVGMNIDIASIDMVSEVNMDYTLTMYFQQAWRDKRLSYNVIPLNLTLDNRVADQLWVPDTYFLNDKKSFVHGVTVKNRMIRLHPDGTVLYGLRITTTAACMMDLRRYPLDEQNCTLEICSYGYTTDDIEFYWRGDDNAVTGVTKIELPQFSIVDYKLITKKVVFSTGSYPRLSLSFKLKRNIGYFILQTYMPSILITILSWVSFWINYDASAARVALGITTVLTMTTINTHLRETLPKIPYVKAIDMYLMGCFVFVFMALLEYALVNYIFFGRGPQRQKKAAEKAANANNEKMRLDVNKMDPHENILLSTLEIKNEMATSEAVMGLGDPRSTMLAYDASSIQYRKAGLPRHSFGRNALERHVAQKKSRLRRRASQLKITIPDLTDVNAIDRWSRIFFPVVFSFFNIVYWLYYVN
# T1 sequence (P62813 28-455): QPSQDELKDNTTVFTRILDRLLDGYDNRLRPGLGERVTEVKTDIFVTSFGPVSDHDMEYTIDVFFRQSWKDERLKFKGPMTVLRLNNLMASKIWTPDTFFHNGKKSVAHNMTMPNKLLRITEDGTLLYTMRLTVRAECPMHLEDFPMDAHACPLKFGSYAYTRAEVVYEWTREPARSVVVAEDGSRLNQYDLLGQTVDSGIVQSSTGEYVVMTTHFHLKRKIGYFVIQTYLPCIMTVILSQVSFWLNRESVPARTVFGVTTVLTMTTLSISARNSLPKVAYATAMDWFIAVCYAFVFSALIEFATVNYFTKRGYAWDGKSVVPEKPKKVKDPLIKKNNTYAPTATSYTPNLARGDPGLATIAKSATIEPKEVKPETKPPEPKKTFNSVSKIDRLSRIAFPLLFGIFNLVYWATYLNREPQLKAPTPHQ
# T1 sequence (P18508 39-466 partner): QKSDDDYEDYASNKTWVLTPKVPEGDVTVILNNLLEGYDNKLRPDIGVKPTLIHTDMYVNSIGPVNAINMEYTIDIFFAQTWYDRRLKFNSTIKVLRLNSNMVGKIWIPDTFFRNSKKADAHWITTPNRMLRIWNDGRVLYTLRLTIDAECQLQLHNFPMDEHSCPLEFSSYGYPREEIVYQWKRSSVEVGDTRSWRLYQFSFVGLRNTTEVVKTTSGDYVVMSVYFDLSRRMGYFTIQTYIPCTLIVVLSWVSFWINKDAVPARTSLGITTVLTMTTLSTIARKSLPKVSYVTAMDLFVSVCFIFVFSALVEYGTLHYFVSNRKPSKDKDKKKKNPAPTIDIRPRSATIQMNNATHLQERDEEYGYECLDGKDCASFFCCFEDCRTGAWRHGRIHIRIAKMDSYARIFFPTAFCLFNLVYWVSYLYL
# [2] = biological target: T2, GABAA receptor α1β2γ2L (β2 subunit) (Rattus norvegicus, UniProt P62813+P63138); assay: whole-cell patch-clamp dose-response; assay type: cell-based
# T2 construct: gene Gabrb2; recombinant α1β2γ2L receptor in HEK293 cells; with GABAA receptor α1 and γ2L subunits
# T2 sequence (P63138 26-474): as the sequence (P63138 26-474 E179C) above, with C154E counted along it
# T2 sequence (P62813 28-455): as the sequence (P62813 28-455) above
# T2 sequence (P18508 39-466 partner): as the sequence (P18508 39-466 partner) above
smiles,measurement,setting,value
"NCc1cc(=O)[nH]o1 [MSC, muscimol]",EC50,[1],12.5 mM
same,EC50,[2],0.009 mM
